Source: patent publication US5912351A, “Anhydrous 1,4-Dihydropyridines and salts thereof” (Recordati, S.A. Chemical and Pharmaceutical Company, priority 1995, dated 1999)

How the values were obtained:
[1] = system: mouse peritoneal macrophages; assay: Cholesteryl ester hydrolysis in macrophages; assay type: cell-based; details: AcLDL 50 μg/ml + S-58035 1 μg/ml + 5 × 10^-6 M compound
Procedure: These experiments were performed by incubating cells preloaded with [^3 H]cholesterol in the presence of the specific ACAT inhibitor S-58035. The blockage of intracellular reesterification of cholesterol allowed the assessment of the ability of cells to hydrolyze the accumulated cholesterol esters.
For studies involving the quantitation of the hydrolysis of cholesteryl esters in cytoplasmic lipid droplets, cells, prepared according to the procedure in Example 6A, are loaded with cholesteryl esters by exposure for 24 hours to the medium containing 50 μg/ml acetyl LDL. [1,2-^3 H]Cholesterol is included in all loading media at a concentration of 0.5 μCi/ml. After 24 hours loading period, during which time the radiolabeled cholesterol is incorporated and esterified, the cell monolayers are washed and incubated an additional 24 hours in medium containing 0.1% bovine serum albumin to allow the intracellular pools of labelled cholesterol to equilibrate to the same specific activity. To quantitate cholesteryl ester hydrolysis, the loaded cells are incubated for up to 24 hours in Dulbecco's minimum essential medium containing, 0.1% bovine serum albumin, lercanidipines, and the compound S-58035, an inhibitor of acyl-coenzyme A-cholesterol acyltransferase. The inhibition of acyl-coenzyme A-cholesterol acyltransferase prevents the reesterification of any free cholesterol generated by cholesteryl ester hydrolysis and thus allows assessment of the activity of the hydrolase. The hydrolysis of the cholesteryl esters is quantified by determining the decrease of radiolabeled cholesteryl esters (E. H. Harrison et al., J. Lipid. Res. 31: […] with phosphate buffered saline and extracted with hexane:isopropanol (3:2 v/v). The media were extracted with chloroform:methanol (2:1 v/v). After solvent removal, free and esterified cholesterol were separated by TLC (isooctane:diethyl ether:acetic acid, 75:25:2 by volume). Cholesterol mass or radioactivity of the spots were determined by an enzymatic method (Boehringer Mannheim, Germany) (F. Bernini et al., Atherosclerosis 104: 19 (1993)) or by liquid scintillation counting (Lipoluma Lumac, Landgraf, The Netherlands) respectively.

[2] = system: renal hypertensive dogs; assay: Blood pressure in renal hypertensive dogs, oral administration; assay type: in vivo, dog; details: for ED25: Canis lupus familiaris, linear regression analysis, read-out: ED25 (dose inducing 25% decrease in DBP at peak effect), 95% C.L.
Procedure: The antihypertensive effects of oral administration of lercanidipine and its enantiomers were tested in renal hypertensive dogs.
Male Beagle dogs weighing 12-13 kg, aging 1-3 years (Nossan Allevamenti, Italy) were used. Chronic sustained hypertension was induced by bilateral renal artery constriction, according to the Goldblatt method "two-kidney, two clip hypertension". Under barbiturate anaesthesia (35 mg/kg i.v.), during two different surgical interventions one month apart from each other, both renal arteries were clipped with original renal silver clips and narrowed by about 60-70%. After two months from the last intervention,an experimental renal hypertension was produced and the animals were suitable for the implantation of a catheter. Under sodium pentobarbital anaesthesia (35 mg/kg i.v.), in sterile conditions, the dogs were catheterized by inserting an indwelling cannula (PE 200 Clay Adams) into the ascending aorta through the right common carotid artery. The catheter was subcutaneously exteriorized at the back of the neck, filled with heparinized saline solution and flushed daily to prevent clotting. After a week recovery time from surgery, the animals were connected to a HP 1290A pressure transducer connected to an HP 8805B carrier amplifier of a Hewlett Packard HP 7700 multichannel polygraph, to monitor the arterial blood pressure. Heart rate was manually computed from the pressure trace.
All animals were alternatively treated with placebo, lercanidipine and its (R)- and (S)- enantiomers. The drugs were administered orally with a straight round aseptic tip catheter (Pores Serlat--France). The drugs were suspended in aqueous 0.5% Methocel A4C plus Antifoam M10 (10%). The amount administered was 1 ml/kg.
The suspending medicine was used as placebo. During experimental performance, the arterial blood pressure was continuously recorded 30 min. before (basal values) and up to 8 hours after drug administration.
The ED25 values (dose inducing 25% decrease in DBP at peak effect) were evaluated by linear regression analysis and summarized in the Table 4.

SMILES	% of cholesteryl ester [1]	arterial blood pressure [2]	ED25 [2]	decrease in DBP ([2]; up to 30 mg/kg)	efficacy at lowering blood pressure relative to the racemate [2]
COC(=O)C1=C(C)NC(C)=C(C(=O)OC(C)(C)CN(C)CCC(c2ccccc2)c2ccccc2)C1c1cccc([N+](=O)[O-])c1 (racemic) [LE, methyl 1,1,N-trimethyl-N-(3,3-diphenylpropyl)-2-aminoethyl 1,4-dihydro-2,6-dimethyl-4-(3-nitrophenyl)-pyridine-3,5-dicarboxylate]	12 ± 1.2%	dose-related decrease	0.9 mg/kg	–	–
COC(=O)C1=C(C)NC(C)=C(C(=O)OC(C)(C)CN(C)CCC(c2ccccc2)c2ccccc2)[C@@H]1c1cccc([N+](=O)[O-])c1 [(R)-LE, (R)-(-)METHYL 1,1-N-TRIMETHYL-N-(3,3-DIPHENYLPROPYL)-2-AMINOETHYL 1,4-DIHYDRO-2,6-DIMETHYL-4-(3-NITROPHENYL)PYRIDINE-3,5-DICARBOXYLATE]	16 ± 2.1%	–	> 30 mg/kg	< 10%	–
COC(=O)C1=C(C)NC(C)=C(C(=O)OC(C)(C)CN(C)CCC(c2ccccc2)c2ccccc2)[C@H]1c1cccc([N+](=O)[O-])c1 [(S)-LE, (S)-(+)-METHYL 1,1-N-TRIMETHYL-N-(3,3-DIPHENYLPROPYL)-2-AMINOETHYL 1,4-DIHYDRO-2,6-DIMETHYL-4-(3-NITROPHENYL)PYRIDINE-3,5-DICARBOXYLATE]	14 ± 0.4%	dose-related decrease	0.4 mg/kg	–	two fold more efficacious
